Legend:
hCA II = target: T1, hCA II (Homo sapiens, UniProt P00918); experiment: stopped-flow CO2 hydrase assay; type: biochemical
T1 construct: gene CA2; cytosolic isoform
Excerpt: stopped-flow CO2 hydrase assay on hCA II

mtCA 3 = target: T2, mtCA 3 (Mycobacterium tuberculosis, UniProt P96878); experiment: biochemical; design: stopped-flow CO2 hydration assay, phenol red absorbance at 557 nm, 15 min pre-incubation, Ki by Cheng-Prusoff
T2 construct: beta-class carbonic anhydrase
Method: An Sx.18Mv-R Applied Photophysics (Oxford, UK) stopped-flow instrument has been used to assay the catalytic activity of various CA isozymes for CO2 hydration reaction. Phenol red (at a concentration of 0.2 mM) was used as indicator, working at the absorbance maximum of 557 nm, with 10 mM Hepes (pH 7.5) or 10 mM Tris (pH 8.5) as buffers, and 0.1 M Na2SO4 (for maintaining constant ionic strength, which is not inhibitory against these enzymes), following the CA-catalysed CO2 hydration reaction for a period of 10 s at 25 °C. The CO2 concentrations ranged from 1.7 to 17 mM for the determination of the kinetic parameters and […]. For each inhibitor at least six traces of the initial 5–10% of the reaction have been used for determining the initial rate. The uncatalysed rates were determined in the same manner and subtracted from the total observed rates. Stock solutions of inhibitors (10 mM) were prepared in distilled-deionised […] to 1 nM using the assay buffer. Inhibitor and enzyme solutions were pre-incubated together for 15 min (standard assay at room temperature) prior to assay, in order to allow for the formation of the enzyme–inhibitor complex. The inhibition constant (KI), was obtained by considering the classical Michaelis–Menten equation and the Cheng-Prusoff algorithm by using non-linear least squares fitting as reported earlier. The compounds 5 and 6 reported here were investigated as inhibitors of three CAs involved in crucial physiologic processes and known to act as drug targets, i.e. the human (h) isoforms hCA I and II (belonging to the α-CA class) and the bacterial enzyme mtCA3 from Mycobacterium tuberculosis (a β-class CA) (Table 3). Acetazolamide (AAZ), a clinically used sulphonamide has been employed as standard inhibitor in the assay.

hCA I = target: T3, hCA I (Homo sapiens, UniProt P00915); experiment: stopped-flow CO2 hydrase assay; type: biochemical
T3 construct: gene CA1; cytosolic isoform
T3 sequence (P00915 2-261): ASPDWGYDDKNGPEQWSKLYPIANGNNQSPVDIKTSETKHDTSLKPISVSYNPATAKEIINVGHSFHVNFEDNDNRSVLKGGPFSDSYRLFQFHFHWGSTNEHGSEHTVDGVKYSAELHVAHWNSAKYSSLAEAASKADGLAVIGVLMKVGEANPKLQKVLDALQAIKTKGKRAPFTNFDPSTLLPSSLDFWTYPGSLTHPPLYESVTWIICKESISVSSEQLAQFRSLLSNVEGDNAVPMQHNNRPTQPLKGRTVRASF
Excerpt: stopped-flow CO2 hydrase assay on hCA I

T2 sequence (P96878 entry or part of it): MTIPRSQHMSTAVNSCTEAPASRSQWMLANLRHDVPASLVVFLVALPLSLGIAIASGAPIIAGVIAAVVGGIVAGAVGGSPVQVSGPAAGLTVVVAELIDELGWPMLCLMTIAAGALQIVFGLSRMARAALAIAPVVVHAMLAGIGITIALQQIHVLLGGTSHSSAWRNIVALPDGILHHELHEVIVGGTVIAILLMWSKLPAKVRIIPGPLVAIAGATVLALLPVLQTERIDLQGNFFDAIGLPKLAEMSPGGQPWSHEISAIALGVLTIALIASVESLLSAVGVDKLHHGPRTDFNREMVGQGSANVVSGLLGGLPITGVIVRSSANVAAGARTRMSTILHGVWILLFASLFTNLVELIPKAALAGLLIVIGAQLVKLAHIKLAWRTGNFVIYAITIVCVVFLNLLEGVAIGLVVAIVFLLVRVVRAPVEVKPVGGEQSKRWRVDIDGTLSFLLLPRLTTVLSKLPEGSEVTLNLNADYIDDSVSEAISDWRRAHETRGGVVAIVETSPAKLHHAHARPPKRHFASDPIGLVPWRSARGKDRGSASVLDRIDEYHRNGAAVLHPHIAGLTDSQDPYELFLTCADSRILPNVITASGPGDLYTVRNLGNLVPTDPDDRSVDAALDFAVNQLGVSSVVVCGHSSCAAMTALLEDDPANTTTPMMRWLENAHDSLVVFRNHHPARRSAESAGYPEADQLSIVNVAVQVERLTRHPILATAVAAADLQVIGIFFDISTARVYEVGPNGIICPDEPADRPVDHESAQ

Compound | Ki (hCA II) | Ki (mtCA 3) | Ki (hCA I)
COc1cccc(C=NNC(=O)CNc2ccc(S(N)(=O)=O)cc2)c1OC [6j, 4-((2-(2-(2,3-Dimethoxybenzylidene)hydrazinyl)-2-oxoethyl)amino)benzenesulphonamide] | 240 nM | 232 nM | 785 nM
NS(=O)(=O)c1ccc(NCC(=O)N/N=C/c2ccc(O)cc2)cc1 [6g, 4-((2-(2-(4-Hydroxybenzylidene)hydrazinyl)-2-oxoethyl)amino) benzenesulphonamide] | 255 nM | – | 327 nM
Cc1ccc(C=NNC(=O)CNc2ccc(S(N)(=O)=O)cc2)cc1 [6b, 4-((2-(2-(4-Methylbenzylidene) hydrazinyl)-2-oxoethyl)amino)benzene sulphonamide] | 914 nM | > 10000 nM | 266 nM
NS(=O)(=O)c1ccc(NCC(=O)N/N=C/c2ccccc2O)cc1 [6c, 4-((2-(2-(2-Hydroxybenzylidene)hydrazinyl)-2-oxoethyl)amino) benzenesulphonamide] | 32.1 nM | 2150 nM | 54.6 nM
NS(=O)(=O)c1ccc(NCC(=O)N/N=C/c2ccccc2)cc1 [6a, 4-((2-(2-Benzylidenehydrazinyl)-2-oxoetehyl)amino) benzenesulphonamide] | 549 nM | > 10000 nM | 220 nM
CC1=NN(C(=O)CNc2ccc(S(N)(=O)=O)cc2)C(c2ccccc2)C1 (stereo not drawn) [5l, 4-((2-(3-Methyl-5-phenyl-4,5-dihydro-1H-pyrazol-1-yl)-2-oxoethyl)amino) benzene sulphonamide] | 810 nM | 1580 nM | 760 nM
NS(=O)(=O)c1ccc(NCC(=O)N2N=C(c3ccc(Cl)cc3)CC2c2ccccc2Cl)cc1 (stereo not drawn) [5f, 4-((2-(3-(4-Chlorophenyl)-5-(2-chlorophenyl)-4,5-dihydro-1H-pyrazol-1-yl)-2-oxoethyl)amino)benzenesulphonamide] | 433 nM | 215 nM | 445 nM
NS(=O)(=O)c1ccc(NCC(=O)N2N=C(c3ccc(Cl)cc3)CC2c2ccc(F)cc2)cc1 (stereo not drawn) [5b, 4-((2-(3-(4-Chlorophenyl)-5-(4-fluorophenyl)-4,5-dihydro-1H-pyrazol-1-yl)-2-oxoethyl)amino) benzenesulphonamide] | 500 nM | – | 441 nM
NS(=O)(=O)c1ccc(NCC(=O)N2N=C(c3ccc(Cl)cc3)CC2c2cccs2)cc1 (stereo not drawn) [5i, 4-((2-(3-(4-Chlorophenyl)-5-(thiophen-2-yl)-4,5-dihydro-1H-pyrazol-1-yl)-2-oxoethyl)amino)benzenesulphonamide] | 373 nM | 233 nM | 276 nM
COc1ccc(C2CC(C)=NN2C(=O)CNc2ccc(S(N)(=O)=O)cc2)cc1 (stereo not drawn) [5m, 4-((2-(5-(4-Methoxyphenyl)-3-methyl-4,5-dihydro-1H-pyrazol-1-yl)-2-oxoethyl)amino)benzenesulphonamide] | 5550 nM | > 10000 nM | 2370 nM
CC1=NN(C(=O)CNc2ccc(S(N)(=O)=O)cc2)C(c2ccc(Cl)cc2)C1 (stereo not drawn) [5n, 4-((2-(5-(4-Chlorophenyl)-3-methyl-4,5-dihydro-1H-pyrazol-1-yl)-2-oxoethyl)amino)benzenesulphonamide] | 944 nM | 1290 nM | 835 nM
NS(=O)(=O)c1ccc(NCC(=O)N2N=C(c3ccc(Cl)cc3)CC2c2ccccc2O)cc1 (stereo not drawn) [5g, 4-((2-(3-(4-Chlorophenyl)-5-(2-hydroxyphenyl)-4,5-dihydro-1H-pyrazol-1-yl)-2-oxoethyl)amino)benzenesulphonamide] | 578 nM | 147 nM | 174 nM
COc1ccc(C2CC(c3ccc(Cl)cc3)=NN2C(=O)CNc2ccc(S(N)(=O)=O)cc2)cc1OC (stereo not drawn) [5h, 4-((2-(3-(4-Chlorophenyl)-5-(3,4-dimethoxyphenyl)-4,5-dihydro-1H-pyrazol-1-yl)-2-oxoethyl)amino)benzenesulphonamide] | 424 nM | 186 nM | 280 nM
CC1=NN(C(=O)CNc2ccc(S(N)(=O)=O)cc2)C(c2ccc(F)cc2)C1 (stereo not drawn) [5p, 4-((2-(5-(4-Fluorophenyl)-3-methyl-4,5-dihydro-1H-pyrazol-1-yl)-2-oxoethyl)amino)benzenesulphonamide] | 903 nM | 250 nM | 665 nM
COc1ccc(/C=N/NC(=O)CNc2ccc(S(N)(=O)=O)cc2)cc1 [6f, 4-((2-(2-(4-Methoxybenzylidene) hydrazinyl)-2-oxoethyl)amino) benzenesulphonamide] | 703 nM | 2130 nM | 648 nM
CC1=NN(C(=O)CNc2ccc(S(N)(=O)=O)cc2)C(c2ccc(N(C)C)cc2)C1 (stereo not drawn) [5t] | 5150 nM | 1740 nM | 842 nM
CC1=NN(C(=O)CNc2ccc(S(N)(=O)=O)cc2)C(c2ccccc2Cl)C1 (stereo not drawn) [5q, 4-((2-(5-(2-Chlorophenyl)-3-methyl-4,5-dihydro-1H-pyrazol-1-yl)-2-oxoethyl)amino)benzenesulphonamide] | 648 nM | 623 nM | 742 nM
CC1=NN(C(=O)CNc2ccc(S(N)(=O)=O)cc2)C(c2ccccc2O)C1 (stereo not drawn) [5r, 4-((2-(5-(2-Hydroxyphenyl)-3-methyl-4,5-dihydro-1H-pyrazol-1-yl)-2-oxoethyl)amino)benzenesulphonamide] | 83.1 nM | 1590 nM | 721 nM
NS(=O)(=O)c1ccc(NCC(=O)N2N=C(c3ccc(Cl)cc3)CC2c2c[nH]c3ccccc23)cc1 (stereo not drawn) [5k, 4-((2-(3-(4-Chlorophenyl)-5-(1H-indol-3-yl)-4,5-dihydro-1H-pyrazol-1-yl)-2-oxoethyl)amino)benzenesulphonamide] | 392 nM | 127 nM | 440 nM
NS(=O)(=O)c1ccc(NCC(=O)N2N=C(c3ccc(Cl)cc3)CC2c2ccc(Br)cc2)cc1 (stereo not drawn) [5c, 4-((2-(3-(4-Chlorophenyl)-5-(4-bromophenyl)-4,5-dihydro-1H-pyrazol-1-yl)-2-oxoethyl)amino) benzenesulphonamide] | 2850 nM | 732 nM | 634 nM
COc1ccc(/C=N/NC(=O)CNc2ccc(S(N)(=O)=O)cc2)cc1OC [6e, 4-((2-(2-(3,4-Dimethoxybenzylidene)hydrazinyl)-2-oxoethyl)amino) benzenesulphonamide] | 758 nM | – | 1800 nM
NS(=O)(=O)c1ccc(NCC(=O)N2N=C(c3ccc(Cl)cc3)CC2c2ccccc2)cc1 (stereo not drawn) [5a, 4-((2-(3-(4-Chlorophenyl)-5-phenyl-4,5-dihydro-1H-pyrazol-1-yl)-2-oxoethyl)amino) benzenesulphonamide] | 282 nM | 1800 nM | 306 nM
Cc1ccc(C2CC(c3ccc(Cl)cc3)=NN2C(=O)CNc2ccc(S(N)(=O)=O)cc2)cc1 (stereo not drawn) [5d, 4-((2-(3-(4-Chlorophenyl)-5-(4-methylphenyl)-4,5-dihydro-1H-pyrazol-1-yl)-2-oxoethyl)amino)benzenesulphonamide] | 426 nM | 175 nM | 93.4 nM
COc1cc(/C=N/NC(=O)CNc2ccc(S(N)(=O)=O)cc2)cc(OC)c1O [6h, 4-((2-(2-(4-Hydroxy-3,5-dimethoxybenzylidene)hydrazinyl)-2-oxoethyl)amino) benzenesulphonamide] | 483 nM | 2000 nM | 292 nM
CC1=NN(C(=O)CNc2ccc(S(N)(=O)=O)cc2)C(c2ccc(O)cc2)C1 (stereo not drawn) [5s, 4-((2(5-(4-Hydroxyphenyl)-3-methyl-4,5-dihydro-1H-pyrazol-1-yl)-2-oxoethyl)amino)benzenesulphonamide] | 73.6 nM | 265 nM | 738 nM
NS(=O)(=O)c1ccc(NCC(=O)N2N=C(c3ccc(Cl)cc3)CC2c2ccncc2)cc1 (stereo not drawn) [5e, 4-((2-(3-(4-Chlorophenyl)-5-(pyridin-4-yl)-4,5-dihydro-1H-pyrazol-1-yl)-2-oxoethyl)amino) benzenesulphonamide] | 42.3 nM | 138 nM | 175 nM
NS(=O)(=O)c1ccc(NCC(=O)N2N=C(c3ccc(Cl)cc3)CC2c2c3ccccc3cc3ccccc23)cc1 (stereo not drawn) [5j, 4-((2-(5-(Anthracen-9-yl)-3-(4-chlorophenyl)-4,5-dihydro-1H-pyrazol-1-yl)-2-oxoethyl)amino)benzenesulphonamide] | 2020 nM | 157 nM | 91.8 nM
COc1cc(/C=N/NC(=O)CNc2ccc(S(N)(=O)=O)cc2)cc(OC)c1OC [6i, 4-((2-Oxo-2-(2-(3,4,5-trimethoxybenzylidene) hydrazinyl)ethyl)amino) benzenesulphonamide] | 446 nM | 216 nM | 890 nM
NS(=O)(=O)c1ccc(NCC(=O)N/N=C/c2ccccn2)cc1 [6d, 4-((2-Oxo-2-(2-(pyridin-2-ylmethylene) hydrazinyl)ethyl)amino) benzenesulphonamide] | 418 nM | > 10000 nM | 316 nM
